The values below come from patent publication US20050130925A1, “Method and composition for enhancing PGE1 production in vascular endothelial and smooth muscle cells” (The Board of Regents of the University of Texas System, priority 2003, published 2005).

Data set [1] has as its system human aortic endothelial cells (HAECs). Put plainly: Prostaglandin production in HAECs with/without fatty acids and AdCOX-1 transfection, EIA (Example II). Format: cell-based. The note with it: for enhancement of PGI2 production: HAECs, fatty acid stimulation (Discussion); for PGE1/PGE2 ratio: fatty acid-stimulated naïve HAECs; for PGE1 production / PGE2 production / PGI2 production: naïve (nontransfected) HAECs, 20 μM fatty acid, 45 minutes.

For data set [2], the system named is balloon-injured carotid arteries of New Zealand White rabbits. Format: in vivo, New Zealand White rabbit. The note with it: no vector (PBS), 20 μM fatty acid stimulation. The protocol: Balloon injury and local delivery of the COX-1 gene to carotid arteries of New Zealand White (NZW) rabbits were done according to a protocol approved by the animal committee at the University of Texas Houston Health Science Center. As described previously^31, rabbit anesthesia was performed prior to each surgery. In brief, a no. 4 catheter introducer was introduced into the right femoral artery of anesthetized rabbits. Heparin at a dose of 150 units/kg was then administered to prevent arterial thrombosis during angioplasty. A balloon catheter (2.5×20 mm, Baxter Healthcare Corporation) was inserted into the femoral introducer and advanced to the right carotid artery with the assist of a guide wire under fluoroscopy. Balloon angioplasty was performed using 5 inflations to 8 atm for 30 second each time. One minute reperfusion was allowed between inflations. After angioplasty, the balloon was retracted 15 mm, and the proximal end of the damaged artery was ligated over the tip of the deflated angioplasty catheter with 2-0 silk over umbilical tape, to prevent further injury. All blood was removed from the damaged artery by repeated flushing with saline through the wire port of the angioplasty catheter. Then the distal portion of the damaged artery was ligated. After removing the remaining saline, 1×10^10 PFU/ml AdCOX, Adnull or 1 ml of PBS were gradually introduced into the isolated artery, respectively. After incubating the virus in the artery for 30 min, the artery was flushed to remove virus or PBS and washed with saline. Finally, all incisions were repaired and the rabbits were monitored until they had recovered from anesthesia. Upon completing of surgery, the cut regions of rabbit were repaired and rabbits were recovered.
Balloon injury and local delivery of the COX-1 gene to carotid arteries of NZW rabbits (n=24) were performed as described above. Eight rabbits were treated with AdCOX, and a like number were respectively treated with Adnull and PBS.
Three days after local gene delivery, balloon-injured rabbits were sacrificed, and their carotid arteries were harvested as 2-cm-long artery rings. Each artery ring was cut open to expose the lumen and then into 6 small pieces. The pieces were washed 3 times with Dulbecco's modified Eagle's medium (DME; Invitrogen) and incubated with DMEM supplemented with 20 μM AA or DGLA and 2% FBS at 37° C. for 45 minutes. In each treatment group, 4 rabbits provided injured arteries for AA stimulation and 4 provided them for DGLA stimulation. Supernatants were collected and used for prostaglandin assays as described above. Each arterial piece was then dried and weighed.

The subject of data set [3] is human coronary artery smooth muscle cells (HCASMCs). Put plainly: Prostaglandin production in HCASMCs with/without fatty acids and AdCOX-1 transfection, EIA (Example II). It is filed as cell-based. Particulars: for PGE1/PGE2 ratio: fatty acid-stimulated naïve HCASMCs; for increase of PGE1 production by stimulation: naive HCASMCs vs no stimulation; for PGE1 production / PGE2 production / PGI2 production: naïve (nontransfected) HCASMCs, 20 μM fatty acid, 45 minutes.

Another data set deals with HCASMC. Put plainly: Western blot of COX-1 and COX-2 expression in HCASMC. Format: cell-based, human. Particulars: normal HCASMC, 10 ng/ml for 24 hour. On the technique in general: In western blotting, separated proteins are transferred to a membrane and probed.
The test system of a further data set is HAEC. Put plainly: Western blot of COX-1 and COX-2 expression in HAEC. It is filed as cell-based, human. Particulars: normal HAEC, 10 ng/ml for 24 hour.
For data set [4] the following is noted: clinical use; cited from earlier work.
The mark [5] stands for this setting: naïve HCASMCs vs no stimulation.

Where “and” joins values, the source holds several entries; their conditions need not be identical. Identical values can stand only once. Where only a bound is given, the exact number is not on record here.

Consider `CCCCC/C=C\C/C=C\C/C=C\C/C=C\CCCC(=O)O` [AA, arachidonic acid], for which, in data set [1] (AA-stimulated naïve HAECs), the “PGE1 production, times lower than in DGLA-stimulated counterparts” value is listed as above 4 times. In addition, in data set [1], the “enhancement of PGI2 production” value turned out to be 25%, the PGE1/PGE2 ratio is 0.16, the PGE1 production is 1.10 ± 0.41 ng/10^6 cells and the PGE2 production amounted to 6.17 ± 0.83 ng/10^6 cells. For the same compound, in data set [1], the PGI2 production is 2.70 ± 0.13 ng/10^6 cells. Besides, the “increase of PGI2 production by stimulation (in words)” value in data set [1] (naive HAECs vs no stimulation) is “one third”. Besides, in data set [1] (naïve HAECs vs no stimulation), the “increase of PGE2 production by stimulation” value is around 2 fold and the “suppression of PGE1 production by stimulation” value is listed as around 24%. In data set [2], the PGE1 production is listed as 31 ± 19 pg/mg arterial tissue, the PGE2 production was 74 ± 42 pg/mg arterial tissue and the PGI2 production is on record as 432 ± 135 pg/mg arterial tissue. Moreover, the “PGE1 production, times lower than in DGLA-stimulated counterparts” value in data set [3] (AA-stimulated naïve HCASMCs) is on record as above 2 times. Moreover, in data set [3], the PGE1/PGE2 ratio turned out to be 0.27, the “increase of PGE1 production by stimulation” value (shortened to “increase of PGE1 production”) is given as above 2 fold, the PGE1 production was found to be 14.04 ± 1.5 ng/10^6 cells and the PGE2 production amounted to 51.8 ± 2.46 ng/10^6 cells. This compound registered a PGI2 production in data set [3] of 37.12 ± 2.54 ng/10^6 cells. Besides, in data set [3] (setting [5]), the “increase of PGE2 production by stimulation” value is recorded as around 2 fold and the “increase of PGI2 production by stimulation” value is recorded as around 3 fold.

In the case of “IL-1β: interleukin-1β, used to induce COX-2 in normal cells”, the “COX-2 induction (immunoblot)” value with HCASMC and in the data set on HAEC was “capable of prompting COX-2 induction” in each case.

In the case of `CCCCC/C=C\C/C=C\C/C=C\CCCCCCC(=O)O` [DGLA, dihommo-γ-linolenic acid], in data set [1], the “enhancement of PGI2 production” value came out at 5%; the PGE1/PGE2 ratio is 3.22 and 3; the PGE1 production is recorded as 5.00 ± 0.51 ng/10^6 cells; the PGE2 production is recorded as 1.55 ± 0.37 ng/10^6 cells. The compound also yielded a PGI2 production in data set [1] of 2.15 ± 0.33 ng/10^6 cells. In data set [1] (naive HAECs vs no stimulation), the “increase of PGE1 production” value is recorded as above 3 fold and the “increase of PGI2 production by stimulation (in words)” value is given as “only slightly”. Moreover, in data set [1] (naïve HAECs vs no stimulation), the “suppression of PGE2 production by stimulation” value is listed as 35-50%. For the same compound, in data set [2], the PGE1 production worked out at 47 ± 3.90 pg/mg arterial tissue, the PGE2 production was determined as 51 ± 20 pg/mg arterial tissue and the PGI2 production amounted to 443 ± 201 pg/mg arterial tissue. Moreover, in data set [3], the PGE1/PGE2 ratio is 1.46 and 1.5; the “increase of PGE1 production” value is above 4 fold; the PGE1 production was 32.34 ± 2.41 ng/10^6 cells; the PGE2 production came out at 22.05 ± 1.45 ng/10^6 cells. Besides, in data set [3], the PGI2 production came out at 9.30 ± 1.09 ng/10^6 cells. For the same compound, in data set [3] (setting [5]), the “lowering of PGI2 production by stimulation” value is 28% and the “suppression of PGE2 production by stimulation” value is listed as 35-50%.

With `CCCCC(C)(O)C/C=C/[C@H]1[C@H](O)CC(=O)[C@@H]1CCCCCCC(=O)OC` (mixture of isomers) [Misoprostol], the “adverse side effects (including diarrhea and abdominal pain), patients affected” value in data set [4] is reported as 14-40 % of patients.
